Assay [1] deals with normal human lung fibroblast adhesion to LAP. The assay is described as follows: Primary cell LAP adhesion assay (cell impedance), normal HLF. It is filed as cell-based. The following applies: HLFs isolated from normal lung tissue, read-out: IC50 for blocking adhesion to LAP. As to the method:
Adhesion of primary human lung cells to LAP was quantified using the xCELLigence RTCA MP instrument (ACEA Biosciences; San Diego, CA, USA) via cell impedance measurements similar to that previously described.
Adhesion assays were performed using the xCELLigence RTCA MP instrument (ACEA Biosciences; San Diego, CA, USA) on 96-well PET plates (ACEA Biosciences; 300600910) via a cell impedance measurement similar to one previously described (E6). Plates were coated with LAP (Sino Biological; 10804-H08H1) overnight at 4 °C and blocked with BSA for 2 h at 37 °C. NHLF (40,000 cells/well), dHLF (40,000 cells/well), or NHBE (20,000 cells per well) in FBS-free media were combined with small-molecule integrin inhibitors or antibodies in the plates and incubated at 37 °C with 5% CO2. […] Anti-αv antibody, 17E6, and anti-β1 antibody, P5D2, were tested at a single concentration (10 μg/ml). Cell impedance (cell index) was measured at baseline and every 3 min for up to 24 h using xCELLigence RTCA 2.1.0 Software (ACEA Biosciences). […] Geometric mean IC50 was calculated for each compound following repeat analyses of multiple donor cells.

The target in the next assay is T1, human integrin αvβ6 (Homo sapiens, UniProt P06756+P18564).
T1 construct: purchased ACROBiosystems or R&D Systems IT6-H52E1 or 3817-AV
The assay is described as follows: Integrin ligand-binding assay, αvβ6 (LAP ligand). As to the method: Integrin ligand-binding assays were performed similar to that previously described.
Microplates were coated with recombinant human integrins dissolved in PBS (2 µg/ml, overnight at room temperature). Following removal of the coating solution, plates were washed with PBS. Plates were blocked with 200 µL/well of blocking buffer (2% bovine serum albumin [BSA] in PBS) at 37 °C for 1 h. […] Plates were incubated for 2 h at 25 °C, washed, and incubated for 1 h with biotin-labeled anti-fibronectin or anti-LAP antibodies (for αvβ1 or αvβ6/αvβ8, respectively).

The test system of assay [2] is PCLSs prepared from bleomycin-challenged mouse lungs. The assay is described as follows: Col1a1 expression in PCLSs from bleomycin-challenged mouse lungs. It is filed as cell-based. From the text:
PCLSs were generated from explanted lung tissue from patients with IPF and cultured as previously described. Mouse PCLSs were generated and cultured as previously described. Messenger ribonucleic acid (mRNA) levels in lysates prepared from snap-frozen tissue slices were quantified via NanoString PlexSet reagents and nCounter SPRINT Profiler (NanoString; Seattle, WA, USA; Additional file 1: Table S2) or TaqMan primers/probes on a Bio-Rad CFX96 thermocycler (Bio-Rad; Hercules, CA, USA; Additional file 1: Table S3).
Mouse PCLSs were generated and cultured based on previously reported methods (E13). Briefly, mice were challenged with bleomycin (Hospira; Lake Forest, IL, USA or Teva; Toronto, ON, Canada), either acutely with a single dose (3 U/kg or 4 U/kg) or chronically with multiple doses (3 U/kg bleomycin followed by four 1 U/kg challenges at 2-week intervals). Fourteen days after the final bleomycin challenge, lungs were harvested and 200 μm-thick slices were cut using a Compresstome VF-300-0Z (Precisionary Instruments).
Slices from each individual core (human) or mouse were distributed among the treatment groups to control for variability in the fibrotic injury within the tissue. […] After 3 or 7 days in culture, slices were washed and snap-frozen. Viability of sentinel slices on Days 0/1 and 3/7 was determined using WST-1 Cell Proliferation Reagent (Sigma 5015944001; St Louis, MO, USA).
For all figures (except Fig. 2B, Fig. S2, and Fig. S4), snap-frozen tissue slices were incubated in one-third RLT buffer (Qiagen #79216; Venlo, Netherlands) supplemented with 2 mg/ml proteinase K (Sigma-Aldrich #3115887001; St Louis, MO, USA) at 55 °C for 2 h 45 min, with periodic vortexing to generate ribonucleic acid (RNA)-compatible tissue lysate. This lysate was incubated overnight with probes from a custom fibrosis gene panel and NanoString PlexSet reagents (Table S2). The following day, samples were analyzed on a NanoString nCounter SPRINT Profiler (NanoString; Seattle, WA, USA). Messenger RNA (mRNA) counts were normalized to housekeeping genes (GUSB, HPRT1, RPLP0, and/or POLR1B) and total mRNA counts, relative to vehicle-treated control from the same experiment, are reported.
For Figs. 2B, S2, and S4, RNA purification and qPCR were performed by Transcriptic, Inc. (Menlo Park, CA, USA) using a proprietary automated protocol. Briefly, RNA was purified on a KingFisher Flex system (Thermo Fisher) and qPCR was performed on a Bio-Rad CFX96 (Bio-Rad; Hercules, CA, USA) with TaqMan primers/probes (Thermo Fisher) listed in Table S3. Ct values were normalized to housekeeping genes (Rn18sRn45s and Hprt) and reported as ddCT and fold change versus the vehicle-treated samples.

Here are results for one compound from article PMC8524858, “Dual inhibition of αvβ6 and αvβ1 reduces fibrogenesis in lung tissue explants from patients with IPF” (Respiratory Research, 2021).

T1 sequence (P06756 31-992 limits assumed): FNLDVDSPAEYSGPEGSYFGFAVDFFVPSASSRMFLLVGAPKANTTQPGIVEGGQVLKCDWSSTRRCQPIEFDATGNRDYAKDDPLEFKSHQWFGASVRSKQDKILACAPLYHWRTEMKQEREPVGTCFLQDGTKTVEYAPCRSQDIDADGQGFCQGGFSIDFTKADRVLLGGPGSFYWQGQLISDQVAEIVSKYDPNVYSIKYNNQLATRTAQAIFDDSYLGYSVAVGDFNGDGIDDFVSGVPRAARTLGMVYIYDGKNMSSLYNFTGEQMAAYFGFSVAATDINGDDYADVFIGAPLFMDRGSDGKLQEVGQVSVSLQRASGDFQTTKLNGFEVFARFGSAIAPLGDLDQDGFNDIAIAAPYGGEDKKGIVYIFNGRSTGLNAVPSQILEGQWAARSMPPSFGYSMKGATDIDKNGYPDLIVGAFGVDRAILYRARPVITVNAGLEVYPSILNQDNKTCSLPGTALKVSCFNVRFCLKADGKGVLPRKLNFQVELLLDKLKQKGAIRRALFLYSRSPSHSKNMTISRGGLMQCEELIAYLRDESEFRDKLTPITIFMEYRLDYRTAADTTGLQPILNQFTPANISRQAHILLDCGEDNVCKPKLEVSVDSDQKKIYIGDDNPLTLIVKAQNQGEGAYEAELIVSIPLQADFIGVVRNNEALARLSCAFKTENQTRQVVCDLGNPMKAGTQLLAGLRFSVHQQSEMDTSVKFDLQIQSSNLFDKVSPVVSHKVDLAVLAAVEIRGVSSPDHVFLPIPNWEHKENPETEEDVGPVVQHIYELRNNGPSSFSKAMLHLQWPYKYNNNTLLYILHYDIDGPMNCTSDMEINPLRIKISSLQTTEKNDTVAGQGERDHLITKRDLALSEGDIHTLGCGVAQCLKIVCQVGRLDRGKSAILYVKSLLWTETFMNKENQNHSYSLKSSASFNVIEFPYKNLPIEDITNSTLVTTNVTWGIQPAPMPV
T1 sequence (P18564 22-707 limits assumed): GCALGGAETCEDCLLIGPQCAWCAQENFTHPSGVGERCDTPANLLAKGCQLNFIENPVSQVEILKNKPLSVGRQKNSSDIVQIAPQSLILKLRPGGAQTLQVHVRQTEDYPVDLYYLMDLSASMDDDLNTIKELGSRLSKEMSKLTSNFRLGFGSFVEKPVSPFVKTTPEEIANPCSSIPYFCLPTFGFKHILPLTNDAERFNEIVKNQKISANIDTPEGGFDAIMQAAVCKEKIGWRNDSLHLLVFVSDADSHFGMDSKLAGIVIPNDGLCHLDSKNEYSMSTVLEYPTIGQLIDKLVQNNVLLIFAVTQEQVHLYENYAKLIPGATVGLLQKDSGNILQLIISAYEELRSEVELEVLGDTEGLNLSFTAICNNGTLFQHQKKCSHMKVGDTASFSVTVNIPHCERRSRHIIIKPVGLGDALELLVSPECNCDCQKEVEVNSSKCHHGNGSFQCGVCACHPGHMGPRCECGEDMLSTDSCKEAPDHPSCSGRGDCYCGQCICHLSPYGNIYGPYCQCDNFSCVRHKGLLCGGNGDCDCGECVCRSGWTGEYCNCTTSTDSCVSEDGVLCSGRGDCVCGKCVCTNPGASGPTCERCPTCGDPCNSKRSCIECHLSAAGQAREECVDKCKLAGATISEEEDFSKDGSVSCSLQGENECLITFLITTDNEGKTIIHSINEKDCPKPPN

Regarding `COCCN(CCCCc1ccc2c(n1)NCCC2)CC[C@H](Nc1ncnc2ccccc12)C(=O)O` [PLN-74809], the IC50 was 15.7 nM in assay [1]; 5.7 nM at human integrin αvβ6; 172 nM in assay [2] (Mus musculus, 72 h, 3 days of treatment, extrapolation from dose-response curve of combined experiments (Fig. S4), read-out: minimum concentration required to reduce Col1a1 mRNA levels by 50%). In addition, on human integrin αvβ6 (ligand binding), the “Fold selectivity (vs αvβ6)” value was 1×. The “lowest concentration with significant reduction of Col1a1 mRNA expression” value in assay [2] (3 days of treatment (Fig. S2)) amounted to 16 nM. Besides, the “reduction of Col1a1 mRNA expression” value in assay [2] (3 days of treatment, dose titration (Fig. S2)) is “up to 71%”. The “inhibition of collagen mRNA expression” value in assay [2] (acutely injured mouse lungs, 3 days, PLN-74809 200 nM, GSK3008348 1000 nM, CWHM-12 1000 nM (Fig. 2B)) is on record as “virtually the same degree as less selective multi-αv integrin inhibitors”. Besides, the “effect on Col1a1 gene expression” value in assay [2] (chronic bleomycin-challenged mouse lungs, 7 days of treatment, nintedanib and pirfenidone at approximate clinical Cmax (Fig. 6C)) is on record as “significantly reduced”. For the same compound, the “effect on Col1a1 mRNA expression” value in assay [2] (chronic bleomycin-challenged mouse lungs, 7 days, Compound A 471 nM, 3G9 0.5 µg/ml, PLN-74809 1.82 µM (Fig. 2A)) was “effective at significantly reducing”.
